The values below come from article PMC12884772, “Macrophagic Sclerostin Loop2‐ApoER2 Interaction Required by Sclerostin for Cardiovascular Protective Action” (Advanced Science, 2025).

The subject of test [1] is human differentiated macrophages (THP‐1). Description: LPS‐induced inflammatory responses in human differentiated macrophages (THP‐1), siNC or siLrp8. In kind it is cell-based. On the procedure: (§1) To determine whether the suppressive effects of sclerostin on inflammatory responses in macrophages were dependent on ApoER2 in vitro, PMA (100 ng/mL, 48 h)‐induced human differentiated macrophages (THP‐1 cells, Procell Life Science & Technology, CL‐0233) and mouse macrophages (RAW 264.7 cells, ATCC, TIB‐71) were utilized. Human differentiated macrophages or mouse macrophages were divided into 9 groups (n = 3 per group), respectively, including (1) siNC, (2) siNC + LPS, (3) siNC + LPS + SOST 500 nM or 250 nM, (4) siNC + LPS + SOST 1 µM or 500 nM, (5) siNC + LPS + SOST 2 µM or 1 µM, (6) siLrp8 + LPS + SOST 500 nM or 250 nM, (7) siLrp8 + LPS + SOST 1µM or 500 nM, (8) siLrp8 + LPS + SOST 2 µM or 1 µM, (9) siLrp8 + LPS. Cells in groups (6‐9) were transfected with siRNA targeting human/mouse Lrp8 (human siLrp8: Santa Cruz Biotechnology sc‐40097, mouse siLrp8: Santa Cruz Biotechnology sc‐40098), while cells in groups (1‐5) were transfected with empty vector as control (siNC). 24 h later, cells in group (3)/(6), (4)/(7), and (5)/(8) were treated with recombinant human or mouse sclerostin for 3 h at concentration of 500 nM or 250 nM, 1 µM or 500 nM, as well as 2 µM or 1 µM, respectively, while cells in groups (1), (2), and (9) were treated with vehicle. Then, cells in groups (2‐9) were treated with LPS (100 ng/mL or 1 µg/mL) for 18 h. All groups of cell lysates were collected for determining the mRNA expression levels of TNF‐α, MCP‐1, and IL‐10 (human or mouse, respectively) by RT‐PCR.^[ [34] ^] Cell mediums were collected for determining the protein expression/secretion levels of TNF‐α, MCP‐1, and IL‐10 (human or mouse, respectively) by ELISA.^[ [34] ^]
(§2) Total RNA was extracted from cells following the protocols of Trizol reagent (Invitrogen, 15 596 026). […] The relative gene expression levels were calculated using the 2^−ΔΔCt method with GAPDH as the reference gene.^[ [40] ^] […]

Test [2] concerns mouse macrophages (RAW 264.7). Briefly: LPS‐induced inflammatory responses in mouse macrophages (RAW 264.7), siNC or siLrp8. In kind it is cell-based. On the procedure: as §1, §2
The mark [3] stands for this setting: THP‐1, LPS 100 ng/mL 18 h, recombinant human sclerostin 500 nM-2 µM for 3 h, RT‐PCR and ELISA, n = 3.
Setting [4] is: RAW 264.7, LPS 1 µg/mL 18 h, recombinant mouse sclerostin 250 nM-1 µM for 3 h, RT‐PCR and ELISA, n = 3.

As to “sclerostin: recombinant human/mouse full‐length sclerostin protein”, the “mRNA expression and protein expression/secretion of IL‐10” value in test [1] (setting [3]) and in test [2] (setting [4]) was “promoted” each time. The “mRNA expression and protein expression/secretion of TNF‐α and MCP‐1” value in test [1] (setting [3]) and in test [2] (setting [4]) was “inhibited” throughout. Besides, the “Effects of sclerostin on cytokine/chemokine expression/secretion upon Lrp8 silencing” value is recorded as “not detected” in test [1] (THP‐1 with siLrp8, LPS 100 ng/mL 18 h) and “not detected” in test [2] (RAW 264.7 with siLrp8, LPS 1 µg/mL 18 h).
